Values of other authors as cited in patent publication US20140187505A1, “Cardiac Glycosides to Treat Cystic Fibrosis and Other IL-8 Dependent Disorders” (priority 2002, published 2014).

How the values were obtained:
[1] = mobile phase: methanol/water 30:70; cited from earlier work
[2] = eluent acetonitrile/water 45:55; cited from earlier work
[3] = tested on: guinea-pig heart Na^+-K^+-ATPase; conditions: cited from earlier work
[4] = octanol/water (20 mM TRIS-HCl, pH 7.4); cited from earlier work

Row | Compound | RM values (lipophilicity, reversed-phase thin layer chromatography) [1] | K retentions for reversed-phase high pressure liquid chromatography [2] | ID50 [3] | P (partition coefficient in octanol/water system) [4] | R values for reversed-phase thin layer chromatography [1]
1 | 12-Acetyl-β-methyldigoxin | 1.26 | 4.04 | 25.55 ± 1.70 ×10^−4 mol l^−1 | 746.0 ± 71.3 | 
2 | CC(=O)O[C@@H]1C[C@H]2[C@@H](CC[C@@H]3C[C@@H](O[C@H]4C[C@H](O)[C@H](O[C@H]5C[C@H](O)[C@H](O[C@H]6C[C@H](O)[C@H](O)[C@@H](C)O6)[C@@H](C)O5)[C@@H](C)O4)CC[C@@]32C)[C@@]2(O)CC[C@H](C3=CC(=O)OC3)[C@@]12C [12-Acetyldigoxin] | 0.89 | 1.60 | 20.90 ± 0.98 ×10^−4 mol l^−1 | 195.0 ± 17.5 | 
3 | CC(=O)O[C@H]1C[C@]2(O)[C@@H]3CC[C@@H]4C[C@@H](O[C@H]5C[C@H](O)[C@H](O[C@H]6C[C@H](O)[C@H](O[C@H]7C[C@H](O)[C@H](O)[C@@H](C)O7)[C@@H](C)O6)[C@@H](C)O5)CC[C@]4(C)[C@H]3CC[C@]2(C)[C@H]1C1=CC(=O)OC1 [16-Acetylgitoxin] | 0.89 | 2.27 | 0.85 ± 0.01 ×10^−4 mol l^−1 | 144.0 ± 32.8 | 
4 | C[C@H]1O[C@@H](O[C@H]2[C@@H](O)C[C@H](O[C@H]3[C@@H](O)C[C@H](O[C@H]4CC[C@@]5(C)[C@H](CC[C@@H]6[C@@H]5CC[C@]5(C)[C@@H](C7=CC(=O)OC7)[C@@H](OC=O)C[C@]65O)C4)O[C@@H]3C)O[C@@H]2C)C[C@H](O)[C@@H]1O [16-Formylgitoxin] | 0.84 | 1.82 | 0.78 ± 0.01 ×10^−4 mol l^−1 | 110.9 ± 6.2 | 
5 | C[C@H]1O[C@@H](O[C@H]2[C@@H](O)C[C@H](O[C@H]3[C@@H](O)C[C@H](O[C@H]4CC[C@@]5(C)[C@H](CC[C@@H]6[C@@H]5CC[C@]5(C)[C@H](C7COC(=O)C7)CC[C@]65O)C4)O[C@@H]3C)O[C@@H]2C)C[C@H](O)[C@@H]1O (some centres unmarked) [Dihydro-digitoxin] | 1.42 | 3.40 | 32.40 ± 2.85 ×10^−4 mol l^−1 | 800.0 ± 112.0 | 
6 | C[C@@H]1O[C@@H](O[C@H]2C[C@@H](O)[C@]3(CO)[C@H]4[C@H](O)C[C@]5(C)[C@@H]([C@@H]6COC(=O)C6)CC[C@]5(O)[C@@H]4CC[C@]3(O)C2)[C@H](O)[C@H](O)[C@H]1O [Dihydro-ouabain] | −0.71 | 0.15 | 45.50 ± 3.90 ×10^−4 mol l^−1 | 0.20 ± 0.00 | 
7 | C[C@H]1O[C@@H](O[C@H]2CC[C@@]3(C)[C@H](CC[C@@H]4[C@@H]3CC[C@]3(C)[C@@H](C5=CC(=O)OC5)[C@@H](O)C[C@]43O)C2)C[C@H](O)[C@@H]1O [Gitoxigenin-mono-digitoxoside] | 0.46 | 0.83 | 2.56 ± 0.21 ×10^−4 mol l^−1 | 60.1 ± 10.0 | 
8 | C[C@]12CC[C@H](O)C[C@H]1CC[C@@H]1[C@@H]2CC[C@]2(C)[C@@H](C3=CC(=O)OC3)[C@@H](O)C[C@]12O [Gitoxigenin] | 0.38 | 0.67 | 21.37 ± 0.97 ×10^−4 mol l^−1 | 44.1 ± 1.8 | 
9 | C[C@H]1O[C@@H](O[C@H]2[C@@H](O)C[C@H](O[C@H]3[C@@H](O)C[C@H](O[C@H]4CC[C@@]5(C)[C@H](CC[C@@H]6[C@@H]5CC[C@]5(C)[C@@H](C7=CC(=O)OC7)[C@@H](O)C[C@]65O)C4)O[C@@H]3C)O[C@@H]2C)C[C@H](O)[C@@H]1O [Gitoxin] | 0.68 | 1.28 | 2.55 ± 0.14 ×10^−4 mol l^−1 | 48.0 ± 11.2 | 
10 | CC(=O)O[C@H]1[C@@H](OC(C)=O)C[C@H](O[C@H]2[C@@H](OC(C)=O)C[C@H](O[C@H]3[C@@H](OC(C)=O)C[C@H](O[C@H]4CC[C@@]5(C)[C@H](CC[C@@H]6[C@@H]5CC[C@]5(C)[C@@H](C7=CC(=O)OC7)[C@@H](OC(C)=O)C[C@]65O)C4)O[C@@H]3C)O[C@@H]2C)O[C@@H]1C [Pentaacetylgitoxin] | 1.86 | 49.45 | 112.00 ± 10.70 ×10^−4 mol l^−1 | 2890.0 ± 668.0 | 
11 | C[C@H]1O[C@@H](O[C@H]2[C@@H](OC=O)C[C@H](O[C@H]3[C@@H](OC=O)C[C@H](O[C@H]4CC[C@@]5(C)[C@H](CC[C@@H]6[C@@H]5CC[C@]5(C)[C@@H](C7=CC(=O)OC7)[C@@H](OC=O)C[C@]65O)C4)O[C@@H]3C)O[C@@H]2C)C[C@H](OC=O)[C@@H]1OC=O [Pentaformylgitoxin] | 1.85 | 8.99 | 0.23 ± 0.00 ×10^−4 mol l^−1 | 1440.0 ± 118.3 | 
12 | C[C@]12CC[C@H]3[C@@H](CC[C@]4(O)C[C@@H](O)CC[C@]34C=O)[C@@]1(O)CC[C@@H]2C1=CC(=O)OC1 [k-Strophanthidin] |  | 0.42 | 17.80 ± 0.81 ×10^−4 mol l^−1 | 3.60 ± 0.5 | −0.14
13 | CO[C@H]1C[C@H](O[C@H]2CC[C@]3(C=O)[C@H]4CC[C@]5(C)[C@@H](C6=CC(=O)OC6)CC[C@]5(O)[C@@H]4CC[C@]3(O)C2)O[C@H](C)[C@H]1O [k-Strophanthin-α] | −0.09 | 0.79 | 1.29 ± 0.14 ×10^−4 mol l^−1 | 4.40 ± 0.3 | 
14 | CO[C@H]1C[C@H](O[C@H]2CC[C@]3(C=O)[C@H]4CC[C@]5(C)[C@@H](C6=CC(=O)OC6)CC[C@]5(O)[C@@H]4CC[C@]3(O)C2)O[C@H](C)[C@H]1O[C@@H]1O[C@H](CO)[C@@H](O)[C@H](O)[C@H]1O [k-Strophanthin-β] | −0.50 | 0.22 | 2.51 ± 0.12 ×10^−4 mol l^−1 | 0.11 ± 0.01 | 
15 | CO[C@H]1[C@@H](O)C[C@H](O[C@H]2[C@@H](O)C[C@H](O[C@H]3[C@@H](O)C[C@H](O[C@H]4CC[C@@]5(C)[C@H](CC[C@@H]6[C@@H]5C[C@@H](O)[C@]5(C)[C@@H](C7=CC(=O)OC7)CC[C@]65O)C4)O[C@@H]3C)O[C@@H]2C)O[C@@H]1C [β-Methyldigoxin] |  | 1.19 | 1.55 ± 0.06 ×10^−4 mol l^−1 | 63.3 ± 20.9 | 
16 | Dihydro-digoxin | 0.24 | 0.51 | 40.90 ± 3.35 ×10^−4 mol l^−1 |  | 
